In ChEMBL document CHEMBL4052721, “Gerontoxanthone B from Maclura cochinchinensis var. gerontogea exhibits anti-inflammatory potential as an aryl hydrocarbon receptor agonist” (Bioorg Med Chem, 2017):
Each block holds one compound with its values, some of them ahead of it.

Key:
Format in all cases: cell-based
[1] = target: T1, Aryl hydrocarbon receptor (Homo sapiens, UniProt P35869); experiment: Agonist activity at AhR in human HepG2 cells at 1 to 10 uM after 42 hrs by luciferase reporter gene assay relative to control
T1 sequence (P35869 whole entry): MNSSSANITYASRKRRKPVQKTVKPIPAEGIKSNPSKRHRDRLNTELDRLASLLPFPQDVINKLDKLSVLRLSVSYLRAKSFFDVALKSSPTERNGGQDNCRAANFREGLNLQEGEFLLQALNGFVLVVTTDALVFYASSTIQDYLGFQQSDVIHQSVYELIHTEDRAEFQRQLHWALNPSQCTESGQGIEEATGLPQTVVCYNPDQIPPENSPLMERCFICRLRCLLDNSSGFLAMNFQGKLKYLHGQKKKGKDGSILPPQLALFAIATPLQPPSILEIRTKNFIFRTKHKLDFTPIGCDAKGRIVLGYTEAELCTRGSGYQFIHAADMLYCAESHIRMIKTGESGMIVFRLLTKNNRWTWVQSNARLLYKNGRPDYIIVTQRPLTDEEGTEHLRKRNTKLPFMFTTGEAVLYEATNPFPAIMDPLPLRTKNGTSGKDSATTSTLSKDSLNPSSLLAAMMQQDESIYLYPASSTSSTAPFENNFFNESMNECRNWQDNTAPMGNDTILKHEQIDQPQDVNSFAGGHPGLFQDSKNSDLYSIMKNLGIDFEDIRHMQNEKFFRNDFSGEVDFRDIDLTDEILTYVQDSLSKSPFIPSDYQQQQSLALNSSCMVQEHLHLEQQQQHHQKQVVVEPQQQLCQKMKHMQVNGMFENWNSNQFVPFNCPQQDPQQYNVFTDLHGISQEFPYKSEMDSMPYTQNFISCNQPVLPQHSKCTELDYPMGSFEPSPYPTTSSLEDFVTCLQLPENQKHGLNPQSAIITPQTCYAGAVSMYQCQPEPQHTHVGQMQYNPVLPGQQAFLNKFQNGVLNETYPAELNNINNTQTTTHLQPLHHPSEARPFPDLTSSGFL

HepG2 [2] = experiment: Cytotoxicity against human HepG2 cells at 1 uM; details: hepg2, 1 µM
[3] = target: T1, Aryl hydrocarbon receptor; experiment: Agonist activity at AhR in human HepG2 cells at 10 uM after 42 hrs by luciferase reporter gene assay relative to control; details: read-out: FC
[4] = target: T1, Aryl hydrocarbon receptor; experiment: Agonist activity at AhR in human HepG2 cells at 2.5 to 10 uM after 42 hrs in presence of AhR antagonist 3',4'-DMF by luciferase reporter gene assay
[5] = target: T1, Aryl hydrocarbon receptor; experiment: Agonist activity at AhR in human HepG2 cells at 2.5 to 10 uM after 42 hrs in presence of AhR antagonist CH-223191 by luciferase reporter gene assay
[6] = target: T1, Aryl hydrocarbon receptor; experiment: Agonist activity at AhR in human HepG2 cells at 2.5 to 10 uM after 42 hrs in presence of AhR antagonist GNF-351 by luciferase reporter gene assay
HepG2 [7] = experiment: Cytotoxicity against human HepG2 cells at 20 uM; details: hepg2, 20 µM
[8] = target: T1, Aryl hydrocarbon receptor; experiment: Agonist activity at AhR in human HuH7 cells assessed as reduction in IL-1beta induced increase in SAA1 mRNA level at 10 uM pretreated for 20 hrs followed by Il-1beta addition measured after 4 hrs by qRT-PCR analysis
[9] = target: T1, Aryl hydrocarbon receptor; experiment: Agonist activity at AhR in human HepG2 cells after 42 hrs by luciferase reporter gene assay
[10] = target: T1, Aryl hydrocarbon receptor; experiment: Agonist activity at AhR in human HepG2 cells at 5 to 20 nM after 42 hrs in presence of AhR antagonist GNF-351 by luciferase reporter gene assay
[11] = target: T1, Aryl hydrocarbon receptor; experiment: Agonist activity at AhR in human HepG2 cells at 5 to 20 nM after 42 hrs in presence of AhR antagonist 3',4'-DMF by luciferase reporter gene assay
[12] = target: T1, Aryl hydrocarbon receptor; experiment: Agonist activity at AhR in human HuH7 cells assessed as reduction in IL-1beta induced increase in SAA1 mRNA level at 10 nM pretreated for 20 hrs followed by Il-1beta addition measured after 4 hrs by qRT-PCR analysis; details: 0.01 µM

Structure (SMILES): CC(C)=CCc1c(O)cc(O)c2c(=O)c3c(CC=C(C)C)c(O)ccc3oc12 [GERONTOXANTHONE H]
fold change (FC) [1]: >= 2

Structure (SMILES): CC1Oc2cc3oc4c(O)c5c(cc4c(=O)c3c(O)c2C1(C)C)C=CC(C)(C)O5 (stereo unspecified) [GERONTOXANTHONE A]
Activity (HepG2 [2]): Toxic
fold change (FC) [1]: >= 2

fold induction at 10 µM [3]: ≥ 2
Structure (SMILES): CC(C)=CCc1c(O)ccc2oc3c4c(cc(O)c3c(=O)c12)OC(C)(C)C=C4

Structure (SMILES): C=CC(C)(C)c1c(O)c(CC=C(C)C)c(O)c2c(=O)c3ccc(O)c(O)c3oc12 [GERONTOXANTHONE I]
fold induction at 10 µM [3]: ≥ 2

Structure (SMILES): C=CC(C)(C)c1c(O)cc2oc3c(O)c4c(cc3c(=O)c2c1O)C=CC(C)(C)O4 [GERONTOXANTHONE B]
Activity [4]: Not Active
Activity [5]: Active
Activity [6]: Not Active
Activity (HepG2 [7]): Toxic
Activity [8]: Active
fold change (FC) [1]: >= 2
Activity [9]: Dose-dependent effect

fold change (FC) [1]: >= 2
Structure (SMILES): C=CC(C)(C)c1c(O)cc2oc3c(O)c(OCC=C(C)C)ccc3c(=O)c2c1O

Structure (SMILES): Clc1cc2c(cc1Cl)Oc1cc(Cl)c(Cl)cc1O2 [2,3,7,8-TETRACHLORODIBENZO-P-DIOXIN]
Activity [10]: Not Active
Activity [11]: Not Active
Activity [12]: Active
